Tests used:
[1] = AUC (0 to 24hrs) in mouse at 1 mg/kg, iv; assay type: ADME, organism-based; settings: in vivo
[2] = Half life in mouse at 1 mg/kg, iv; assay type: ADME, organism-based; settings: in vivo
[3] = Antiproliferative activity against human SMARCA4-deficient NCI-H1568 cells assessed as maximal inhibition of cell growth measured after 7 days by WST-8 assay relative to control; assay type: functional; settings: time 7 day
[4] = Antiproliferative activity against human SMARCA4-deficient NCI-H1693 cells assessed as maximal inhibition of cell growth measured after 7 days by WST-8 assay relative to control; assay type: functional; settings: time 7 day

- AUC(0-t) [1]: 1740 ng·h/mL
- half-life [2]: 8.4 h
SMILES: Cc1ncsc1-c1ccc([C@H](CN2CCOCC2)NC(=O)[C@@H]2C[C@@H](O)CN2C(=O)[C@@H](n2cc([C@H]3CC[C@H](CN4CCC(c5ccc6c(c5)-n5c(nc(=O)c7c(Cl)cccc75)C65CCCCC5)CC4)CC3)nn2)C(C)(C)C)cc1
- Imax [3]: 86%
- Imax [4]: 85%

From ChEMBL document CHEMBL6096675 (J Med Chem, 2025)
